# Experimental data taken from patent US20030225065A1, “Bis-arylsulfones” (priority 2002, published 2003).
# Counter-ions that a name gives are not always drawn.
# Test system: not given
# Experiment: not given
# Conditions: not given
row,melting point [°C],SMILES
1,85 to 89,"CN1CCN(c2ccc(S(=O)(=O)c3ccc(F)cc3)c(N)c2)CC1 [Example 4, 2-[(4-fluorophenyl)sulfonyl]-5-(4-methyl-1-piperazinyl) phenylamine]"
2,148 to 151,"Cc1ccc(S(=O)(=O)c2ccc(N3CCN(C)CC3)cc2N)cc1 [Example 6, 2-[(4-methylphenyl)sulfonyl]-5-(4-methyl-1-piperazinyl) phenylamine]"
3,153 to 154,CNc1cc(N2CCCNCC2)ccc1S(=O)(=O)c1cccc(F)c1 (as salt: HCl)
4,102 to 106,"Cc1ccc(S(=O)(=O)c2ccc(N3CCNCC3)cc2N)cc1 [Example 5, 2-[(4-methylphenyl)sulfonyl]-5-(1-piperazinyl) phenylamine]"
5,121 to 123,"CCNc1cc(N2CCNCC2)ccc1S(=O)(=O)c1ccccc1 (as salt: salt) [Example 13, N-ethyl-2-(phenylsulfonyl)-5-(1-piperazinyl) phenylamine]"
6,90 to 93,"CN1CCN(c2ccc(S(=O)(=O)c3ccccc3)c(N)c2)CC1 [Example 7, 5-(4-methyl-1-piperazinyl)-2-(phenylsulfonyl) phenylamine]"
7,89 to 92,"CN1CCN(c2ccc(S(=O)(=O)c3cccc(F)c3)c(N)c2)CC1 [Example 8, 2-[(3-fluorophenyl)sulfonyl]-5-(4-methyl-1-piperazinyl) phenylamine]"
8,144 to 146,"Nc1cc(N2CCNCC2)ccc1S(=O)(=O)c1ccc(F)cc1 [Example 3, 2-[(4-fluorophenyl)sulfonyl]-5-(1-piperazinyl) phenylamine]"
9,106 to 108,"Nc1cc(N2CCCNCC2)ccc1S(=O)(=O)c1cccc(F)c1 (as salt: hydrochloride) [Example 2, 5-(1,4-diazepan-1-yl)-2-[(3-fluorophenyl)sulfonyl]phenylamine]"
10,165 to 166,"Nc1cc(N2CCNCC2)ccc1S(=O)(=O)c1ccccc1 (as salt: salt) [Example 1, 2-(phenylsulfonyl)-5-(1-piperazinyl)phenylamine]"

# Biological target: T1, cloned human 5-HT6 receptor (Homo sapiens, UniProt P50406)
# T1 construct: host or cells: HeLa cells (G-418 selection), membrane preparation
# T1 sequence (P50406 whole entry): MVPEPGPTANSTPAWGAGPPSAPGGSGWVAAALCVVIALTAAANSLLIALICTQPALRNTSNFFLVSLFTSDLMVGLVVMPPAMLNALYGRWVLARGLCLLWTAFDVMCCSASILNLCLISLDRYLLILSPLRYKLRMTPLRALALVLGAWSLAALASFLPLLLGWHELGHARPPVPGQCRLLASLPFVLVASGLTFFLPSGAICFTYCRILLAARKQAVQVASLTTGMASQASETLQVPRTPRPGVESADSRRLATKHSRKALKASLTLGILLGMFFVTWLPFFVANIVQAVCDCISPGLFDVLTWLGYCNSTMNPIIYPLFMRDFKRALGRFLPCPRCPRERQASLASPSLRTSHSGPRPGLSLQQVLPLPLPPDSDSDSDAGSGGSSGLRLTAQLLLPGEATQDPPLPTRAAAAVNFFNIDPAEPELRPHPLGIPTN
# Experiment: 5-HT6 receptor binding assay ([3H]-LSD radioligand, SPA beads, Hela cell membranes)
# Conditions: IC50 converted to Ki by the Cheng-Prusoff equation
# Procedure: Harvested intact cells are washed once in cold phosphate-buffered saline. The cells are pelleted and resuspended in 100 ml of cold 50 mM Tris, 5 mM EDTA and 5 mM EGTA, pH 7.4. Homogenization is with a Vir Tishear generator, 4 cycles for 30 seconds each at setting 50. The homogenized cells are centrifuged at 700 RPM (1000×g) for 10 minutes and the supernatant is removed. […] The rehomogenized cells are then centrifuged at 700 RPM (1000×g) for 10 minutes and the supernatant is removed. […] The membrane pellet is resupended in 50-8-ml of assay buffer containing HEPES 20 mM, MgCl2 10 mM, NaCl 150 mM, EDTA 1 mM, pH 7.4 and stored frozen in aliqouts at −70° C.
# The radioligand binding assay used [^3H]-lysergic acid diethylamide (LSD). The assay is carried out in Wallac 96-well sample plates by the addition of 11 μl of the test sample at the appropriate dilution (the assay employed 11 serial concentrations of samples run in duplicate), 11 μl of radioligand, and 178 μl of a washed mixture of WGA-coated SPA beads and membranes in binding buffer. The plates are shaken for about 5 minutes and then incubated at room temperature for 1 hour. The plates are then loaded into counting cassettes and counted in a Wallac MicroBeta Trilux scintillation counter.
# Eleven serial dilutions of test compounds are distributed to assay plates using the PE/Cetus Pro/Pette pipetter. […]
row,Ki [nM],SMILES
1,2.7,"CCNc1cc(N2CCNCC2)ccc1S(=O)(=O)c1ccccc1 [Example 13, N-ethyl-2-(phenylsulfonyl)-5-(1-piperazinyl) phenylamine]"
